For assay [1], the target named is T1, wild type avian FAK catalytic domain (GST fusion protein) (Gallus gallus, UniProt Q00944).
T1 construct: the catalytic domain of FAK was expressed as a GST fusion protein; made in house; host or cells: Escherichia coli BL21 (Codon Plus)
Kind of assay: Fluorescence anisotropy binding of BODIPY-labeled C6 phosphoinositides to wild type catalytic domain. The conditions noted are these: for Binding to wild type catalytic domain compared with the PI control (ANOVA, Tukey's posttest): anisotropy at 100 and 200 μM protein. Here is the method: (§1) For anisotropy experiments purified GST fusion proteins were incubated with BODIPY (dipyrromethene boron difluoride)-labeled phosphoinosotides with C6-acyl chains (Echelon). Increasing concentrations of purified protein were added to 12.5 nM fluorescent phosphoinositide in buffer containing 20 mM HEPES [pH7.5], 150 mM NaCl, and 5 mM β-mercaptoethanol. Anisotropy measurements were taken at 37°C using a Flourlog spectroflourometer equipped with Glan-Thompson polarizers with FluorEssence software (HORIBA Jobin Yvon). Specific binding of the catalytic domain was determined by subtraction of binding of GST alone. Binding curves and dissociation constants were determined using the Prism 5.0 statistical analysis software (GraphPad).
(§2) PI(4,5)P2 binding was further validated using fluorescence anisotropy. GST and the GST catalytic domain of FAK were incubated with BODIPY-TMR labeled short acyl chain (C6) PI or PI(4,5)P2 and anisotropy measured.
To test the specificity of the lipid interaction, the binding of wild type and RK5A GST-fusion proteins to phosphatidylinositol, PI(4)P, PI(4,5)P2, and PI(3,4,5)P3 was analyzed. Purified GST catalytic domain fusion proteins were titrated into a solution of BODIPY-labeled phospholipids with C6-acyl chains, and anisotropy was measured. Phosphatidylinositol with C6-acyl chains and purified GST were used as controls. Differences in anisotropy of each BODIPY-labeled phospholipid at 100 and 200 μM of each protein were compared by ANOVA and a Tukey’s posttest (S1 Table). […] To calculate binding affinities, anisotropy was plotted against protein concentration and binding to GST was subtracted as background binding. […] To determine if the observed interaction with the short acyl chain PI(4,5)P2 required the basic residues implicated in binding to PI(4,5)P2-containing vesicles, the RK5A mutant was analyzed.
For orientation: Fluorescence polarisation rises when a labelled molecule tumbles more slowly, as on binding a larger partner.

Assay [2] addresses T2, FAK catalytic domain RK5A mutant (GST fusion protein) (Gallus gallus, UniProt Q00944, K515A/K621A/K627A/R508A/R514A).
T2 construct: This GST mutant catalytic domain fusion protein was found in the supernatant; made in house; host or cells: Escherichia coli BL21 (Codon Plus)
The experiment in a line: Fluorescence anisotropy binding of BODIPY-labeled C6 phosphoinositides to RK5A mutant. Also on record: species or system avian. As to the method:
as §1, §2
To test the specificity of the lipid interaction, the binding of wild type and RK5A GST-fusion proteins to phosphatidylinositol, PI(4)P, PI(4,5)P2, and PI(3,4,5)P3 was analyzed. Purified GST catalytic domain fusion proteins were titrated into a solution of BODIPY-labeled phospholipids with C6-acyl chains, and anisotropy was measured. Phosphatidylinositol with C6-acyl chains and purified GST were used as controls. […]

Assay [3] has as its target T3, FAK catalytic domain R508A/R514A/K515A mutant (GST fusion protein) (Gallus gallus, UniProt Q00944, K515A/R508A/R514A).
T3 construct: mutations were engineered into the GST-catalytic domain construct; made in house; host or cells: Escherichia coli BL21 (Codon Plus)
The conditions noted are these: BODIPY-labeled C6 lipid, Fig 7, read-out: Kd for binding (specific binding, GST subtracted).
Excerpt: (§3) Short acyl chain (C6) BODIPY labeled PI(4,5)P2, was chosen to assess the ability of these mutants to bind phospholipids using fluorescence anisotropy.

For assay [4], the target named is T4, FAK catalytic domain K621A/K627A mutant (GST fusion protein) (Gallus gallus, UniProt Q00944, K621A/K627A).
T4 construct: mutations were engineered into the GST-catalytic domain construct; made in house; host or cells: Escherichia coli BL21 (Codon Plus)
T4 sequence (Q00944 422-680 K621A/K627A limits assumed): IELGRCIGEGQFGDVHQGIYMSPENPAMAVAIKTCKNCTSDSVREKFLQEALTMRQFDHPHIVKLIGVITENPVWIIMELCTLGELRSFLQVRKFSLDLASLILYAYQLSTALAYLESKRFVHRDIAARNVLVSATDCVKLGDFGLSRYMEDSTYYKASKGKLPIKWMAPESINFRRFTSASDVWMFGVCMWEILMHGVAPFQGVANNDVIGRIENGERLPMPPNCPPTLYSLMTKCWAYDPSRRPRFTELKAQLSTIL
The conditions noted are these: BODIPY-labeled C6 lipid, Fig 7, read-out: Kd for binding (specific binding, GST subtracted).
Excerpt: as §3

Assay [5] has as its target T5, FAK catalytic domain R508A/K621A mutant (GST fusion protein) (Gallus gallus, UniProt Q00944, K621A/R508A).
T5 construct: mutations were engineered into the GST-catalytic domain construct; made in house; host or cells: Escherichia coli BL21 (Codon Plus)
The conditions noted are these: BODIPY-labeled C6 lipid, Fig 7, read-out: Kd for binding (specific binding, GST subtracted).
Excerpt: as §3

[6] abbreviates: wild type catalytic domain, lipid specificity experiment, Fig 8B, read-out: Kd of the wild type catalytic domain for each phosphatidylinositol phosphate.

Where two headings read alike, the source gives them in different places.

T1 sequence (Q00944 422-680 limits assumed): as the sequence (Q00944 422-680 K621A/K627A limits assumed) above, with A200K, A206K counted along it
T2 sequence (Q00944 422-680 R508A/R514A/K515A/K621A/K627A limits assumed): as the sequence (Q00944 422-680 K621A/K627A limits assumed) above, with R87A, R93A, K94A counted along it
T3 sequence (Q00944 422-680 R508A/R514A/K515A limits assumed): as the sequence (Q00944 422-680 K621A/K627A limits assumed) above, with R87A, R93A, K94A, A200K, A206K counted along it
T5 sequence (Q00944 422-680 R508A/K621A limits assumed): as the sequence (Q00944 422-680 K621A/K627A limits assumed) above, with R87A, A206K counted along it

In the case of “Phosphatidylinositol-4,5-bisphosphate [PI(4,5)P2]”, the “Binding to wild type catalytic domain compared with the PI control (ANOVA, Tukey's posttest)” value in assay [1] was “significant”. For the same substance, the Kd was 15.7 ± 6.5 µM in assay [1] (wild type catalytic domain, BODIPY-labeled C6 lipid 12.5 nM, 37°C, Fig 7 experiment, read-out: Kd for binding (specific binding, GST subtracted)); 12.9 ± 2.3 µM in assay [1] (setting [6]); greater than 200 µM in assay [2] (BODIPY-labeled C6 lipid, Fig 7 experiment, read-out: Kd for binding (specific binding, GST subtracted)); 16.4 ± 3.2 µM in assay [3]; 20.8 ± 2.7 µM in assay [4]; greater than 200 µM in assay [5]. For the same substance, the “Specific binding (in words)” value in assay [2] (anisotropy, GST subtracted) is “no specific binding”.

For the substance PI(3,4,5)P3, in assay [1], the “Binding to wild type catalytic domain compared with the PI control (ANOVA, Tukey's posttest)” value is reported as “significant”. The Kd in assay [1] (setting [6]) was determined as 16 ± 9.2 µM.

In the case of phosphatidylinositol [PI], the “Specific binding (in words)” value in assay [1] (wild type catalytic domain, anisotropy, GST subtracted) is given as “did not specifically bind”. The Kd in assay [1] (setting [6]) was greater than 200 µM.

As to PI(4)P, in assay [1], the “Binding to wild type catalytic domain compared with the PI control (ANOVA, Tukey's posttest)” value is “approached, but did not reach significance”. The Kd in assay [1] (setting [6]) stood at 11.7 ± 13.7 µM.

Broadly, the Kd is the free concentration of one partner at which half of the binding sites on the other are occupied at equilibrium, for simple one-to-one binding.

The record behind these values is PMC5319746, “Phospholipid binding to the FAK catalytic domain impacts function” (PLoS ONE, 2017).
